How the values were obtained:
STAT6 = STAT6 (Homo sapiens (Human), UniProt P42226); assay: STAT6 degrader assay (HiBiT, HeLa LgBiT clone 4.14); type: cell-based; conditions: HeLa LgBiT clone 4.14, 4-24 h; geometric mean; given for compounds with >80% Emax; read-out: STAT6 degradation DC50
Procedure, shortened: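 DC50 (nM) comes from luminescence of non-degraded STAT6 read 0.5 h after Nano-GLO addition, following 4-24 h compound exposure at 37° C. Cells were HeLa clone 4.14 expressing LgBiT with a CRISPR HiBiT tag on endogenous STAT6; 50 μM terfenadine set full degradation.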

eotaxin-3 release = assay: Human whole blood eotaxin-3 assay (IL-4 stimulated); type: cell-based; conditions: human whole blood, IL-4 0.4 nM, 48 hours; geometric mean; given for compounds with >80% Emax; read-out: Eotaxin-3 EC50
Procedure, shortened: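 Human whole blood was preincubated with compound for 120 min at 37 °C, then stimulated with recombinant human IL-4 (E. coli) at 0.4 nM final for 48 h. Inhibition of eotaxin-3 release gave EC50 values.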

STAT6, sequence (P42226 whole entry): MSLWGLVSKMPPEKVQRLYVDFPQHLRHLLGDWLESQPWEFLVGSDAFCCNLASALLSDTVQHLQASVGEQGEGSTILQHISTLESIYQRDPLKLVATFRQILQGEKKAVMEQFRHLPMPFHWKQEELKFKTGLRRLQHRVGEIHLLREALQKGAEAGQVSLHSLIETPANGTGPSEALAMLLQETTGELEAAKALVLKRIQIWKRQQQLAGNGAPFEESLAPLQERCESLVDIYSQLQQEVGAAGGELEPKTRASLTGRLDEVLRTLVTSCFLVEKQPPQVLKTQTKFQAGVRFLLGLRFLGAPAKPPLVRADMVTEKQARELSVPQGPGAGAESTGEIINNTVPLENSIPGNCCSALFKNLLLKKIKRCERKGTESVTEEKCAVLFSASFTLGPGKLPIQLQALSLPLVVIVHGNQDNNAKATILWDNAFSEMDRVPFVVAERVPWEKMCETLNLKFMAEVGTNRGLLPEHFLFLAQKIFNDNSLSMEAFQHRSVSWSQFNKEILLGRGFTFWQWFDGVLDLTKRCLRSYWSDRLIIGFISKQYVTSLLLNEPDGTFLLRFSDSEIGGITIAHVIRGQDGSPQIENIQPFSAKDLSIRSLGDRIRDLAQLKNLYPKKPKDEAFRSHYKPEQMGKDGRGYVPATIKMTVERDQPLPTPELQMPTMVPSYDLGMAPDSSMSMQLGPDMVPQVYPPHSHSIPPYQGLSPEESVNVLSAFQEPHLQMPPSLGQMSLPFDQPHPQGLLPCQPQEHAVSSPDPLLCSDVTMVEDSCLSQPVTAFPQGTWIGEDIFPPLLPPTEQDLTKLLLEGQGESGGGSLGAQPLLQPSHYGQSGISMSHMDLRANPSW

| SMILES | DC50 (STAT6) | EC50 (eotaxin-3 release) |
| --- | --- | --- |
| C[C@H]1CN(Cc2ccc3c(c2)C2(CC2)C(=O)N3C2CCC(=O)NC2=O)CCN1CC1CCN(C(=O)c2cc(F)c(C3CCN(Cc4cc5c(-c6ccc(N)nc6)ccnc5n4C)CC3)c(F)c2)CC1 (stereo partly drawn) [Example 3h24, 3-(5′-(((S)-4-((1-(4-(1-((4-(6-aminopyridin-3-yl)-1-methyl-1H-pyrrolo[2,3-b]pyridin-2-yl)methyl)piperidin-4-yl)-3,5-difluorobenzoyl)piperidin-4-yl)methyl)-3-methylpiperazin-1-yl)methyl)-2′-oxospiro[cyclopropane-1,3′-indolin]-1′-yl)piperidine-2,6-dione] | 1.4 nM | 3.9 nM |
| CNc1ccc(-c2ccnc3c2cc([C@H](C)N2CCC(c4ccc(C(=O)N5CCC(CN6CCN(Cc7ccc8c(c7)n(C7CC7)c(=O)n8C7CCC(=O)NC7=O)C[C@@H]6C)CC5)cc4)CC2)n3C)cn1 (stereo partly drawn) [Example 3h25, 3-(3-cyclopropyl-5-(((S)-3-methyl-4-((1-(4-(1-((S)-1-(1-methyl-4-(6-(methylamino)pyridin-3-yl)-1H-pyrrolo[2,3-b]pyridin-2-yl)ethyl)piperidin-4-yl)benzoyl)piperidin-4-yl)methyl)piperazin-1-yl)methyl)-2-oxo-2,3-dihydro-1H-benzo[d]imidazol-1-yl)piperidine-2,6-dione] | 1.9 nM | 3.4 nM |
| C[C@H]1CN(Cc2ccc3c(c2)C(C)(C)C(=O)N3[C@H]2CCC(=O)NC2=O)CCN1CC1CCN(C(=O)c2ccc(C3CCN([C@@H](C)c4cc5c(-c6ccc(N)nc6)ccnc5n4C)CC3)cc2)CC1 [Example 3h31, (S)-3-(5-(((S)-4-((1-(4-(1-((S)-1-(4-(6-aminopyridin-3-yl)-1-methyl-1H-pyrrolo[2,3-b]pyridin-2-yl)ethyl)piperidin-4-yl)benzoyl)piperidin-4-yl)methyl)-3-methylpiperazin-1-yl)methyl)-3,3-dimethyl-2-oxoindolin-1-yl)piperidine-2,6-dione] | 2.5 nM | 8 nM |
| C[C@H]1CN(Cc2ccc3c(c2)C(C)(C)C(=O)N3[C@@H]2CCC(=O)NC2=O)CCN1CC1CCN(C(=O)c2ccc(C3CCN([C@@H](C)c4cc5c(-c6ccc(N)nc6)ccnc5n4C)CC3)cc2)CC1 [Example 3h32, (R)-3-(5-(((S)-4-((1-(4-(1-((S)-1-(4-(6-aminopyridin-3-yl)-1-methyl-1H-pyrrolo[2,3-b]pyridin-2-yl)ethyl)piperidin-4-yl)benzoyl)piperidin-4-yl)methyl)-3-methylpiperazin-1-yl)methyl)-3,3-dimethyl-2-oxoindolin-1-yl)piperidine-2,6-dione] | 2.9 nM | 22.4 nM |
| CNc1ccc(-c2ccnc3c2cc([C@H](C)N2CC=C(c4c(C)cc(C(=O)N5CCC(CN6CCN(Cc7cc8c(cc7F)N(C7CCC(=O)NC7=O)C(=O)C8(C)C)C[C@@H]6C)CC5)cc4F)CC2)n3C)cn1 (stereo partly drawn) [Example 3h33, 3-(6-fluoro-5-(((S)-4-((1-(3-fluoro-5-methyl-4-(1-((S)-1-(1-methyl-4-(6-(methylamino)pyridin-3-yl)-1H-pyrrolo[2,3-b]pyridin-2-yl)ethyl)-1,2,3,6-tetrahydropyridin-4-yl)benzoyl)piperidin-4-yl)methyl)-3-methylpiperazin-1-yl)methyl)-3,3-dimethyl-2-oxoindolin-1-yl)piperidine-2,6-dione] | 36.7 nM | 40.4 nM |
| CNc1ccc(-c2ccnc3c2cc([C@H](C)N2CC=C(c4c(C)cc(C(=O)N5CCC(CN6CCN(Cc7cc8c(cc7F)N(C7CCC(=O)NC7=O)C(=O)C87CC7)CC6)CC5)cc4F)CC2)n3C)cn1 (stereo partly drawn) [Example 3h34, 3-(6′-fluoro-5′-((4-((1-(3-fluoro-5-methyl-4-(1-((S)-1-(1-methyl-4-(6-(methylamino)pyridin-3-yl)-1H-pyrrolo[2,3-b]pyridin-2-yl)ethyl)-1,2,3,6-tetrahydropyridin-4-yl)benzoyl)piperidin-4-yl)methyl)piperazin-1-yl)methyl)-2′-oxospiro[cyclopropane-1,3′-indolin]-1′-yl)piperidine-2,6-dione] | 5.5 nM | 8.5 nM |
| CNc1ccc(-c2ccnc3c2cc(CN2CCC(c4c(F)cc(C(=O)N5CCC(CN6CCN(Cc7ccc8c(c7)C7(CC7)C(=O)N8C7CCC(=O)NC7=O)C[C@@H]6C)CC5)cc4F)CC2)n3C)cn1 (stereo partly drawn) [Example 3h38, 3-(5′-(((S)-4-((1-(3,5-difluoro-4-(1-((1-methyl-4-(6-(methylamino)pyridin-3-yl)-1H-pyrrolo [2,3-b]pyridin-2-yl)methyl)piperidin-4-yl)benzoyl)piperidin-4-yl)methyl)-3-methylpiperazin-1-yl)methyl)-2′-oxospiro[cyclopropane-1,3′-indolin]-1′-yl)piperidine-2,6-dione] | 1.7 nM | 7.1 nM |
| CNc1ccc(-c2ccnc3c2cc([C@H](C)N2CC=C(c4c(C)cc(C(=O)N5CCC(CN6CCN(Cc7ccc8c(c7)C7(CCC7)C(=O)N8C7CCC(=O)NC7=O)C[C@@H]6C)CC5)cc4F)CC2)n3C)cn1 (stereo partly drawn) [Example 3h47, 3-(5′-(((S)-4-((1-(3-fluoro-5-methyl-4-(1-((S)-1-(1-methyl-4-(6-(methylamino)pyridin-3-yl)-1H-pyrrolo[2,3-b]pyridin-2-yl)ethyl)-1,2,3,6-tetrahydropyridin-4-yl)benzoyl)piperidin-4-yl)methyl)-3-methylpiperazin-1-yl)methyl)-2′-oxospiro[cyclobutane-1,3′-indolin]-1′-yl)piperidine-2,6-dione] | 7 nM | 8.8 nM |
| C[C@H]1CN(Cc2ccc3c(c2)C2(CCC2)C(=O)N3C2CCC(=O)NC2=O)CCN1CC1CCN(C(=O)c2ccc(C3CCN([C@@H](C)c4cc5c(-c6ccc(N)nc6)ccnc5n4C)CC3)cc2)CC1 (stereo partly drawn) [Example 3h48, 3-(5′-(((S)-4-((1-(4-(1-((S)-1-(4-(6-aminopyridin-3-yl)-1-methyl-1H-pyrrolo[2,3-b]pyridin-2-yl)ethyl)piperidin-4-yl)benzoyl)piperidin-4-yl)methyl)-3-methylpiperazin-1-yl)methyl)-2′-oxospiro-[cyclobutane-1,3′-indolin]-1′-yl)piperidine-2,6-dione] | 3 nM | 13.2 nM |
| C[C@@H](c1cc2c(-c3ccc(N)nc3)ccnc2n1C)N1CCC(c2ccc(C(=O)N3CCC(CN4CCN(Cc5ccc6c(c5)oc(=O)n6C5CCC(=O)NC5=O)CC4)CC3)cc2)CC1 (stereo partly drawn) [Example 3n5, 3-(6-((4-((1-(4-(1-((S)-1-(4-(6-aminopyridin-3-yl)-1-methyl-1H-pyrrolo[2,3-b]pyridin-2-yl)ethyl)-piperidin-4-yl)benzoyl)piperidin-4-yl)methyl)piperazin-1-yl)methyl)-2-oxobenzo[d]oxazol-3 (2H)-yl)piperidine-2,6-dione] | 2.7 nM | 6 nM |
| C[C@H]1CN(Cc2ccc3c(c2)oc(=O)n3C2CCC(=O)NC2=O)CCN1CC1CCN(C(=O)c2ccc(C3CCN([C@@H](C)c4cc5c(-c6ccc(N)nc6)ccnc5n4C)CC3)cc2)CC1 (stereo partly drawn) [Example 3n6, 3-(6-(((S)-4-((1-(4-(1-((S)-1-(4-(6-aminopyridin-3-yl)-1-methyl-1H-pyrrolo[2,3-b]pyridin-2-yl)ethyl)piperidin-4-yl)benzoyl)piperidin-4-yl)methyl)-3-methylpiperazin-1-yl)methyl)-2-oxobenzo[d]oxazol-3 (2H)-yl)piperidine-2,6-dione] | 0.7 nM | 4 nM |
| CN(C(=O)c1ccc(C2CCN(Cc3cc4c(-c5ccc(N)nc5)ccnc4n3C)CC2)cc1)c1ccc(C2CCN(Cc3ccc4c(c3)n(C)c(=O)n4C3CCC(=O)NC3=O)CC2(F)F)cc1 (centres unmarked) [Example 3p2, 4-(1-((4-(6-aminopyridin-3-yl)-1-methyl-1H-pyrrolo[2,3-b]pyridin-2-yl)methyl)piperidin-4-yl)-N-(4-(1-((1-(2,6-dioxopiperidin-3-yl)-3-methyl-2-oxo-2,3-dihydro-1H-benzo[d]imidazol-5-yl)methyl)-3,3-difluoropiperidin-4-yl)phenyl)-N-methylbenzamide] | 0.8 nM | 17 nM |
| C[C@H]1CN(Cc2ccc3c(c2)C(C)(C)C(=O)N3C2CCC(=O)NC2=O)CCN1CC1CCN(C(=O)c2ccc(C3CCN([C@@H](C)c4cc5c(-c6ccc(N)nc6)ccnc5n4C)CC3)cc2)CC1 (stereo partly drawn) [Example 3r2, 3-(5-(((S)-4-((1-(4-(1-((S)-1-(4-(6-aminopyridin-3-yl)-1-methyl-1H-pyrrolo[2,3-b]pyridin-2-yl)ethyl)piperidin-4-yl)benzoyl)piperidin-4-yl)methyl)-3-methylpiperazin-1-yl)methyl)-3,3-dimethyl-2-oxoindolin-1-yl)piperidine-2,6-dione] | 4.1 nM | 14.7 nM |

From patent US20250325677A1, “STAT6 DEGRADERS” (Gilead Sciences, Inc., priority 2024, published 2025)
